# Patent US6693115B2, “Acid addition salts of hydropyridine derivatives” (Sankyo Company, Limited, priority 2000, dated 2004)
# Experiments:
# [1] = test system: ADP-induced platelet aggregation; assay: Inhibitory effect on platelet aggregation (feeding), ex vivo PRP after oral administration; assay type: in vivo, male beagle dogs; conditions: fed dogs, oral 0.3 mg/kg, ADP 20 μM, mean ± standard deviation; for Inhibition (%) of platelet aggregation 2 hours: 2 hours after administration; for Inhibition (%) of platelet aggregation 4 hours: 4 hours after administration
# Description: Inhibitory Effect on Platelet Aggregation (Feeding)
# For this test, male beagle dogs (about 10 kg in body weight, purchased from Kasho Co., Ltd. and Nippon Nosan Kogyo K.K.) were used. One group consisted of 5 or 6 dogs. The platelet aggregation was measured using an automatic platelet aggregometer (“PAM-6C”, trade name; a product of Mebanix Corporation) in accordance with the method of Born, et al. (J. Physiol., 168, 178 (1963)) with a partial modification.
# Each of 2.5 hours and 4.5 hours after feeding, 5.4 ml of blood was collected from the cephalic vein of each dog using sodium citrate (0.6 ml, 3.8% (w/v)) as an anticoagulant. The citrate-added blood was centrifuged (240 g, 20 minutes) to separate platelet-rich plasma (hereinafter referred to as “PRP”) and platelet-poor plasma (hereinafter referred to as “PPP”). After the number of platelets in PRP was counted by an automatic hematology analyzer (“K-1000”, trade name; a product of Sysmex Corporation), PPP was added to adjust the number of platelets to 3×10^8/ml. PRP (240 μl) dispensed in a cuvette was set on the automatic platelet aggregometer. After preheating (at 37° C.) for 1 minute, 10 μl of ADP (final concentration: 20 μM) was added to cause platelet aggregation. For 10 minutes, platelet aggregation was measured and the maximum aggregation was determined to give the pre-administration value.
# (§1) On the next day, 30 minutes after feeding, each test compound filled in a gelatin capsule was orally administered to the dogs. The blood was collected each of 2 and 4 hours after the administration. The platelet aggregation of PRP was measured, whereby the maximum aggregation was determined. The inhibition (%) of platelet aggregation by the test compound was calculated by comparing it with the pre-administration value.
# In these tables, the term “hydrochloride” means 2-acetoxy-5-(α-cyclopropylcarbonyl-2-fluorobenzyl)-4,5,6-7-tetrahydrothieno[3,2-c]pyridine hydrochloride obtained in Example 1, “free form” means 2-acetoxy-5-(α-cyclopropylcarbonyl-2-fluorobenzyl)-4,5,6,7-tetrahydrothieno[3,2-c]pyridine, and “maleate” means 2-acetoxy-5-(α-cyclopropylcarbonyl-2-fluorobenzyl)-4,5,6,7-tetrahydrothieno[3,2-c]pyridine maleate obtained in Example 2.
# [2] = test system: ADP-induced platelet aggregation; assay: Inhibitory effect on platelet aggregation (fasting), ex vivo PRP after oral administration; assay type: in vivo, male beagle dogs; conditions: Table 4, fasted dogs, oral 1.0 mg/kg, ADP 20 μM, mean ± standard deviation; for Inhibition (%) of platelet aggregation 2 hours: 2 hours after administration; for Inhibition (%) of platelet aggregation 4 hours: 4 hours after administration
# Description: Inhibitory Effect on Platelet Aggregation (Fasting)
# For this test, male beagle dogs (about 10 kg in body weight, purchased from Kasho Co., Ltd. and Nippon Nosan Kogyo K.K.) were used. One group consisted of 3 dogs. The platelet aggregation was measured using an automated platelet aggregometer (“PAM-6C”, trade name; a product of Mebanix Corporation) in accordance with the method of Born, et al. (J. Physiol., 168, 178(1963)) with a partial modification.
# From the cephalic vein of each dog fasted overnight, 5.4 ml of the blood was collected using sodium citrate (0.6 ml, 3.8% (w/v)) as an anticoagulant. The resulting citrate-added blood was centrifuged (240 g, 20 minutes) to separate platelet-rich plasma (hereinafter referred to as “PRP”) and platelet-poor plasma (hereinafter referred to as “PPP”). After the number of platelets in PRP was counted by an automatic hematology analyzer (“K-1000”, trade name; a product of Sysmex Corporation), PPP was added to adjust the number of platelets to 3×10^8/ml. PRP (240 μl) dispensed in a cuvette was set on the automatic platelet aggregometer. After preheating (at 37° C.) for 1 minute, 10 μl of ADP (final concentration: 20 μM) was added to cause platelet aggregation. For 10 minutes, platelet aggregation was measured and the maximum aggregation was determined to give the pre-administration value.
# as §1, with “day,” for “day, 30 minutes after feeding,”, “after” for “after the”
# In this table, the term “maleate” means 2-acetoxy-5-(α-cyclopropylcarbonyl-2-fluorobenzyl)-4,5,6,7-tetrahydrothieno[3,2-c]pyridine maleate obtained in Example 2, while the term “free form” means 2-acetoxy-5-(α-cyclopropylcarbonyl-2-fluorobenzyl)-4,5,6,7-tetrahydrothieno[3,2-c]pyridine.
# [3] = Storage stability of crystal forms; assay type: physicochemical; conditions: comparison between hydrochloride crystal forms
Compound,Inhibition (%) of platelet aggregation 2 hours ([1]; Table 2),Inhibition (%) of platelet aggregation 4 hours ([1]; Table 2),Inhibition (%) of platelet aggregation 2 hours [2],Inhibition (%) of platelet aggregation 4 hours [2],Inhibition (%) of platelet aggregation 2 hours ([1]; Table 3),Inhibition (%) of platelet aggregation 4 hours ([1]; Table 3),storage stability [3]
"CC(=O)Oc1cc2c(s1)CCN(C(C(=O)C1CC1)c1ccccc1F)C2.Cl (stereo not drawn) [Hydrochloride, 2-Acetoxy-5-(α-cyclopropylcarbonyl-2-fluorobenzyl)-4,5,6,7-tetrahydrothieno[3,2-c]pyridine hydrochloride (crystal A)]",49.0 ± 18.7%,48.5 ± 18.3%,–,–,–,–,–
"CC(=O)Oc1cc2c(s1)CCN(C(C(=O)C1CC1)c1ccccc1F)C2.O=C(O)/C=C\C(=O)O (stereo not drawn) [Maleate, 2-Acetoxy-5-(α-cyclopropylcarbonyl-2-fluorobenzyl)-4,5,6,7-tetrahydrothieno[3,2-c]pyridine maleate]",–,–,63.4 ± 22.9%,88.5 ± 5.7%,50.9 ± 14.5%,58.6 ± 15.7%,–
"CC(=O)Oc1cc2c(s1)CCN(C(C(=O)C1CC1)c1ccccc1F)C2.Cl (stereo not drawn) [crystal B2, 2-Acetoxy-5-(α-cyclopropylcarbonyl-2-fluorobenzyl)-4,5,6,7-tetrahydrothieno[3,2-c]pyridine hydrochloride (crystal B2)]",–,–,–,–,–,–,more excellent storage stability than crystal B1
"CC(=O)Oc1cc2c(s1)CCN(C(C(=O)C1CC1)c1ccccc1F)C2 (stereo not drawn) [Free form, 2-Acetoxy-5-(α-cyclopropylcarbonyl-2-fluorobenzyl)-4,5,6,7-tetrahydrothieno[3,2-c]pyridine, reference compound]",25.8 ± 10.9%,28.6 ± 14.2%,27.9 ± 24.8%,28.7 ± 24.4%,21.7 ± 9.8%,23.8 ± 12.6%,–
"CC(=O)Oc1cc2c(s1)CCN(C(C(=O)C1CC1)c1ccccc1F)C2.Cl (stereo not drawn) [crystal B1, 2-Acetoxy-5-(α-cyclopropylcarbonyl-2-fluorobenzyl)-4,5,6,7-tetrahydrothieno[3,2-c]pyridine Hydrochloride (Crystal B1)]",–,–,–,–,–,–,more excellent storage stability than crystal A
